“And” between values parts separate entries of the source, which are not always exact repeats. Equal values may be shown once.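 Exposure lasted 48 hours, with cells grown in 96-well plates and compounds tested at five concentrations. GI50: concentration for 50% inhibition of growth. Definition used: TGI = concentration required for complete inhibition of growth.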 Where only a bound is given, the exact number is not on record here.

What all share (assay): NCI tumour cell line growth inhibition, 48 h
Assay [1] has as its system HT29 colon.
The test system of assay [2] is CAKI-1 renal.
Assay [3] concerns M19-MEL melanoma.
The subject of assay [4] is HCT-116 colon.
Assay [5] concerns SF-295 CNS.
Assay [6] relates to HCT-15 colon.
In assay [7] the test system is NCI-H226 lung.
In assay [8] the test system is DLD-1 colon.
The subject of assay [9] is UO-31 renal.
Assay [10] concerns NCI/ADR-RES ovarian.

Regarding `CN(C)/C=N\c1ccnc(=O)[nH]1`, the TGI in assay [1], in assay [2], in [3], in [4], in assay [5] and in [6] was above 100 µM in each case. In addition, the TGI in assay [7], in assay [8] and in assay [9] was above 100 µM each time.

For `NNc1cnn(-c2ccccc2)c(=O)c1Cl`, the TGI in assay [1], in [2], in assay [3], in [4], in [5] and in [6] was above 100 µM in each case. Further, the TGI in assay [7], in assay [8] and in [9] was above 100 µM throughout.

As for `CC(=O)NC(CCCCN)C(=O)NCc1ccccc1` (stereo not given), the TGI in assay [1], in assay [2], in [3], in [4], in assay [5] and in assay [6] was above 100 µM throughout. The TGI in assay [7], in assay [8] and in assay [9] was above 100 µM each time.

For the compound `C#CCNC(=O)NCCCCC(NC(=O)OCc1ccccc1)C(=O)OCc1ccccc1` (stereo not given), the TGI in assay [1] was above 100 µM; in assay [2], 97.3 µM; in [3], above 100 µM; in assay [4], above 100 µM; in assay [5], above 100 µM; in assay [6] it was above 100 µM. Also, the TGI in assay [7] is above 100 µM; in assay [8] it was above 100 µM; in [9] it was above 72.3 µM.

As for `[O-]c1ccccc1C=Nc1ccc2c(c1)CCC2.[O-]c1ccccc1C=Nc1ccc2c(c1)CCC2.[O]=[U+2]=[O]`, the GI50 was above 100 µM in assay [1]; above 100000 nM in assay [2]; above 100000 nM in [3]; 13.5 µM in assay [4]; above 100000 nM in assay [5]; 28300 nM in assay [6]. Moreover, the GI50 is above 100000 nM in assay [7], 27.8 µM in assay [8] and 31.2 µM in assay [9]. Moreover, the TGI in assay [1], in [2], in assay [3], in assay [4], in [5] and in assay [6] was above 100 µM in each case. Further, the TGI in assay [7], in [8] and in assay [9] was above 100 µM throughout.

Regarding `CN(C)c1nc(=NCc2ccco2)ss1`, the TGI in assay [10] was above 100 µM; in assay [1] it was 20.4 µM; in assay [2], 49.1 µM; in assay [3], above 43.6 µM; in assay [4], 35 µM; in assay [5] it was above 61.4 µM. The TGI is 49.9 µM in assay [6], above 91.5 µM in assay [7], 46.1 µM in assay [8] and 50.1 µM in assay [9].

For `CC(C)(O)/C=C/C(=O)[C@](C)(O)[C@H]1[C@H](O)C[C@@]2(C)[C@@H]3CC=C4[C@@H](C[C@H](O)C(=O)C4(C)C)[C@]3(C)C(=O)C[C@]12C`, the GI50 was 0.0623 µM in assay [1]; 1850 nM in assay [2]; 78.1 nM in assay [3]; 0.164 µM in assay [4]; 264 nM in assay [5]; 86.2 nM and 159 nM in [6]. The GI50 in assay [7] was 174 nM; in [8] it was 0.119 µM; in assay [9], 0.206 µM. Besides, the TGI in assay [1] was 18.3 µM; in assay [3], 20.7 µM; in [5], 0.629 µM and 2.61 µM; in assay [7] it was 0.642 µM and 0.913 µM; in assay [8], 8.08 µM; in assay [9] it was 0.396 µM and 0.519 µM.

`Cc1cc(C)nc(/C(=N\NC(N)=O)C(=O)Nc2nc3ccc(C)cc3s2)c1`: the TGI in assay [1], in assay [2], in assay [3], in assay [4], in [5] and in assay [6] was above 100 µM in each case. Moreover, the TGI in assay [7], in assay [8] and in assay [9] was above 100 µM in each case.

With `CCc1cccc(C)c1N1C(=O)C(=O)C(c2nc3ccccc3o2)C(=O)C1=O`, the TGI in assay [1], in assay [2], in [3], in assay [4], in assay [5] and in [6] was above 100 µM in each case. The TGI in assay [7], in [8] and in [9] was above 100 µM throughout.

Consider `Clc1cccc(N2CCN(CCCN3CCc4c([nH]c5ccccc45)C3c3cccnc3)CC2)c1` (stereo not given), for which the results for the GI50 in [1] and in [4] were 3.18 µM and 6.97 µM, respectively. Besides, the TGI was determined as 14.2 µM in [1]; 25.7 µM in assay [2]; 23.4 µM in assay [3]; 24.9 µM in assay [4]; 21.8 µM in [6]; 35.8 µM in [7]. The TGI in [8] is 27 µM; in assay [9], 18.5 µM.

For `COC(=O)CCC12CCC(=O)C1[C@@H](C(=O)OC)C[C@H]2C(=O)OC` (stereo not given in full), the TGI in assay [1], in assay [2], in assay [3], in [4], in assay [5] and in assay [6] was above 100 µM in each case. The TGI in [7], in [8] and in assay [9] was above 100 µM throughout.

Consider `Cc1c(C(=O)/C=C/C=C/c2ccccc2)[n+](=O)c2ccccc2n1[O-]`, for which the TGI was above 100 µM in assay [2]; above 100 µM in assay [3]; above 100 µM in assay [5]; 36.9 µM in assay [6]; above 100 µM in [7]; 29 µM in assay [8]. Besides, in [9], the TGI is above 100 µM.

Turning to `CCOC(=O)CCC1(C(=O)OCC)CCCC1=O` (stereo not given), the TGI in assay [1], in [2], in assay [3], in assay [4], in assay [5] and in [6] was above 100 µM in each case. The TGI in [7], in [8] and in [9] was above 100 µM in each case.

Consider `CNc1ccc2ncccc2c1[N+](=O)[O-]`, for which the TGI in [1], in assay [2], in assay [3], in assay [4], in [5] and in assay [6] was above 100 µM throughout. In addition, the TGI in assay [7], in assay [8] and in [9] was above 100 µM each time.

Turning to `CCc1cccc(C)c1NC(=O)CCc1nnc2s/c(=C\c3cccc4ccccc34)c(=O)n12`, the TGI in assay [1], in assay [2], in assay [3], in assay [4], in assay [5] and in assay [6] was above 100 µM each time. The TGI in assay [7], in assay [8] and in [9] was above 100 µM in each case.

For `CCOc1ccc(/C(C=O)=C(\Cl)c2ccc(OC)cc2)cc1`, the TGI in assay [10], in [1], in [2], in [3], in assay [4] and in assay [5] was above 100 µM each time. Further, the TGI in [6], in [7], in assay [8] and in assay [9] was above 100 µM each time.

Take `Cc1cccc2c1c1ccc3c(c1n2C)C(=O)C=CC3=O`: the TGI came to 14 µM in assay [1]; 10.4 µM in assay [2]; 14.9 µM in assay [3]; 15.1 µM in assay [4]; 30.9 µM in [5]; 10.5 µM in [6]. The TGI amounted to 32.8 µM in assay [7], 5.21 µM in assay [8] and 9.83 µM in assay [9].

`COC(=O)C1=C(CS(=O)c2ccc([N+](=O)[O-])cc2[N+](=O)[O-])C2C=CC1C2` (stereo not given): the TGI in assay [1] was 35.2 µM; in assay [2], 39.6 µM; in assay [3], 64.2 µM; in assay [4], 45.1 µM; in assay [5], above 100 µM; in assay [6], 29.1 µM. Further, the values for the TGI in assay [7], in assay [8] and in assay [9] were 98.4 µM, 37.6 µM and 45.9 µM, respectively.

Turning to `N#C/C(=C\c1cccc(O)c1O)C(N)=O`, the TGI in assay [1], in [2], in assay [3], in assay [4], in [5] and in [6] was above 100 µM throughout. Also, the TGI in assay [7] is 88 µM; in assay [8] it was above 100 µM; in assay [9], 85.3 µM.

For `Cc1ccc(S(=O)(=O)N=NC=C2c3ccccc3N(O)c3ccccc32)cc1`, the TGI was found to be 13.2 µM in assay [1]; 23.8 µM in [2]; 23.4 µM in assay [3]; 1.94 µM in assay [4]; 21.6 µM in assay [5]; 3.63 µM in assay [6]. Further, the TGI in assay [7] turned out to be 29 µM; in assay [8], 8.46 µM; in assay [9], 27.1 µM.

Consider `O=c1nc(-c2ccccc2)cc(CC(O)c2ccc(Cl)c(Cl)c2)[nH]1` (stereo not given), for which the TGI in assay [1], in assay [2], in assay [3], in assay [4], in assay [5] and in [6] was above 100 µM throughout. The TGI in [7] was above 100 µM; in assay [8], above 100 µM; in [9], 99.3 µM.

The values above are taken from PubChem BioAssay (NCI).
